The values that follow come from US9808434B2, “Compound for treating cancer and diabetes” (CITY OF HOPE, priority 2011, dated 2017).

For one data set, the system named is B16F10 cells. Description: B16F10 cell viability. The format is cell-based, mouse. The conditions noted are these: 1-10 μM, 48 hours; vs COH-SR9 and COH-SR18. How it is done:
Cells of highly aggressive mouse melanoma cell line B16F10 were incubated with various doses of COH-SR4, COH-SR9 and COH-SR18 (1, 3, 5 or 10 μM) for 48 hours.

Data set [1] relates to human melanoma cells (SK-MEL28, A2058, A101D). In words: Oxygen consumption rate in melanoma cells, Seahorse. It is filed as cell-based. The conditions noted are these: 1-10 μM, monitored 2 h. Here is the method:
Oxygen consumption rate (OCR), a measure of OxPhos, and extracellular acidification rate (ECAR), a measure of lactate production by glycolysis, were measured using a Seahorse Xf^e96 Flux Analyzers (Seahorse Biosciences, North Billerica, Mass.). Cells were seeded in DMEM media in Seahorse 96-well tissue culture plates at a density of 5×10^3 cells/well and allowed to adhere for 24 h. Prior to the assay, the media was changed to unbuffered DMEM containing 25 mM glucose, 1 mM pyruvate and 1 mM glutamine, with 0.2% fatty acid/endotoxin-free BSA (w/v) (pH 7.4) and the cells were equilibrated for 30 min at 37° C. Test compounds were injected during the assay and OCR and ECAR were measured using 2-3 min measurement periods. […] OCR was measured throughout the different injections of the stressors and test compounds (indicated by arrows in the figures).
The importance of mitochondria as oxygen sensors as well as producers of ATP and ROS has recently become a focal point of cancer research. […] OCR was continuously monitored for 2 h. Mitochondria recoupler 6-KCH (200 μM) was added to the assay system prior to injection of COH-SR4 (5 μM) as shown by arrows and OCR of A101D cells were monitored (FIG. 37B). […]

For data set [2], the system named is undifferentiated 3T3-L1 cells. Description: Preadipocyte viability, MTT assay. The format is cell-based, mouse. The note with it: 3 days, 2.5-25 μM. Here is the method: Undifferentiated 3T3-LI cells were treated with COH-SR2, COH-SR3, COH-SR4, COH-SR7, LR23 or LR59 for 3 days at a concentration of 2.5 μM, 5 μM, 10 μM, 15 μM, 20 μM, or 25 μM. The cell viability for each treatment was determined by MTT assay (FIG. 7).

For data set [3], the system named is Glioma Cells PBT-017 and/or U251. Description: Combination index COH-SR4 and 5-FU, cell line not stated. The format is cell-based. The conditions noted are these: COH-SR4 <0.5 μM + 5-FU <125 μM. Here is the method:
Effects of combination of COH-SR4 and a chemotherapy drug such as TMZ, SN38, CPT-11, and 5-FU were studied by combination index (CI) theorem and plot using the method described in Chou (“Experimental Design, and Computerized Simulation of Synergism and Antagonism in Drug Combination Studies,” Pharmacological Reviews, Vol. 58, No. 3), which is incorporated herein by reference in its entirety.
COH-SR4 and a chemotherapy drug (TMZ, SN38, CPT-11, or 5-FU) were dissolved in DMSO individually, and then diluted to the appropriate concentration in the same cell culture media before applying to cells of each cell line. After 4 days, the amount of ATP present in the cell lysates were assessed using Progema's CellGlo kit. The CI of each combination of COH-SR4 and the chemotherapy drug was calculated and plotted against the concentration of COH-SR4 for each concentration of the chemotherapy drug used.

The subject of another data set is lung cancer cell lines. In words: TUNEL apoptosis assay, lung cancer cell lines. It is filed as cell-based, human. The conditions noted are these: 1.5 μM, 24 h. Here is the method: […] Apoptosis was determined by the labeling of DNA fragments with terminal deoxynucleotidyl-transferase dUTP nick-end labeling (TUNEL) assay using Promega fluorescence apoptosis detection system, and examined using Zeiss LSM 510 META laser scanning fluorescence microscope with filters 520 and 620 nm according to the protocol described previously (91). Photographs taken at identical exposure at ×400 magnification are presented.
The effect of COH-SR4 was first examined in a NCI panel of cancer cell lines, the results of which indicated good activity of COH-SR4 towards lung cancer (FIG. 78A). […] Values are presented as mean±SD from two separate determinations with eight replicates each (n=16) (FIG. 78B). The COH-SR4 treatment exerted a significant inhibitory effect on the survival of lung cancer cells [IC50: H1417 cells-1.2±0.2 μM, H1618 cells-1.5±0.2 μM, H358 cells-2.1±0.2 μM and H520 cells-2.4±0.3 μM]. […] Following initial screening for the anticancer activity of COH-SR4, the effect of COH-SR4 on clonogenic potential was studied. Standard colony-forming assay was performed and the colonies were counted using Innotech Alpha Imager HP. […] The effect of COH-SR4 on induction of apoptosis was further investigated. […] TUNEL assay was performed using Promega fluorescence detection kit and examined using Zeiss LSM 510 META laser-scanning fluorescence microscope with filters 520 and 620 nm. […]

In data set [4] the test system is CD133 sorted PBT-017 glioma cells. In words: Killing of CD133 sorted PBT-017 glioma cells. The format is cell-based. The note with it: 0-100 μM, 4 days. How it is done: CD133 positive glioma stem cells were sorted by FACS. Unsorted cells, CD133 positive cells, and CD133 negative PBT-017 glioma cells were treated with COH-SR4 at various concentrations (0˜100 μM) for 4 days, respectively. Data were represented as a ratio to untreated control, and plotted as mean±SEM (n=12) obtained from 2˜3 experiments (FIG. 39A).

For the compound `O=C(Nc1cc(Cl)cc(Cl)c1)Nc1cc(Cl)cc(Cl)c1` [COH-SR4, 1,3-bis(3,5-dichlorophenyl) urea], the “potency in killing B16F10 cells” value in the data set with B16F10 cells is listed as “best potency”. The “oxygen consumption rate (OCR)” value in data set [1] was “increased OCR in a time-dependent and dose-dependent manner”. In data set [2], the “growth of undifferentiated preadipocytes (MTT)” value is “inhibited growth of undifferentiated 3T3-L1 cells”. The “combination effect (CI) with 5-FU” value in data set [3] is “synergism”. The “apoptosis (TUNEL)” value in the data set on lung cancer cell lines is on record as “induced apoptosis in all the lung cancer cell lines”. In data set [4], the “killing of CD133 positive, negative and unsorted cells” value was “effective in killing the CD133 positive glioma stem cells”.
